From PMC10439158, “The net electrostatic potential and hydration of ABCG2 affect substrate transport” (Nature Communications, 2023)
Read-outs that look alike come from different tables or passages of the source.

Tests used:
[1] = target: T1, ABCG2 (Homo sapiens, UniProt Q9UNQ0); assay: cell-based; set-up: full-length ABCG2-WT in MEF cells; species or system Abcg2-KO MEFs expressing human ABCG2-WT; Inhibition of ABCG2-mediated Hoechst 33342 efflux; intracellular Hoechst 33342 fluorescence accumulation, normalized to vector control; conditions: 0.5 uM Hoechst 33342 substrate, 2 h, 37 °C; read-out: IC50 for transport inhibition in WT
T1 sequence (Q9UNQ0 1-655): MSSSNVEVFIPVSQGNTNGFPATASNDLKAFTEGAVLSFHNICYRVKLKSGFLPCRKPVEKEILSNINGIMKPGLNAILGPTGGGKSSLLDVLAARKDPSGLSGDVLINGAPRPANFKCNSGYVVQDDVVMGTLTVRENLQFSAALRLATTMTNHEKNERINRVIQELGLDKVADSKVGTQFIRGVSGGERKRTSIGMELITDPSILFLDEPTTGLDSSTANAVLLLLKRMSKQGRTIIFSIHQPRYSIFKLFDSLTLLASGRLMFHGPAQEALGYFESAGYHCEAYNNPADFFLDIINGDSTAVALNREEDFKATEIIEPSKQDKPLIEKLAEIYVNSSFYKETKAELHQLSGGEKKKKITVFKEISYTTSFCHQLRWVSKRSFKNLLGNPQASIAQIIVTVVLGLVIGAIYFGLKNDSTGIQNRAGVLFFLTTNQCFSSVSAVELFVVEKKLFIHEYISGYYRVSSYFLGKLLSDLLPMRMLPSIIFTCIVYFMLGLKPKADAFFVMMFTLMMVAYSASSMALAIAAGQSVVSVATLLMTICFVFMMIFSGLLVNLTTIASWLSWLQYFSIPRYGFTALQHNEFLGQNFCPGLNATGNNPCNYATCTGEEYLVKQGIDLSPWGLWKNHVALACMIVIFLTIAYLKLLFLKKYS
Protocol: The intracellular accumulation of fluorescent Hoechst 33342, pheophorbide a, chlorin e6, and purpurin 18, ABCG2 substrates, was used to determine the function of ABCG2. […] Thereafter, the medium was removed, and cells were washed twice with 200 μL ice-cold PBS and the fluorescence of Hoechst 33342 was then quantitatively determined with a Synergy H4 microplate reader (BioTek, Winooski, VT, USA) at an excitation wavelength of 355 nm and an emission wavelength of 460 nm. The accumulation of Hoechst 33342 was normalized to protein concentration as determined using the BCA Protein Assay Kit (Pierce, Rockford, IL, USA). The data were normalized by the proportion accumulated relative (%) to vector control. For the time-dependent Hoechst 33342 accumulation assay, 10 μM Hoechst 33342 was treated for different time periods (0.5, 1, 1.5, 2, 5, 10, 20, 30, 60, and 90 min). Relative intracellular Hoechst 33342 levels in the MEFs were normalized to vector control at 90 min. For the other fluorescent substrate accumulation assay, 0.5 μM pheophorbide a, 5 μM chlorin e6, or 5 μM purpurin 18 were treated for 1 h at 37 °C in the dark. The intracellular accumulation of pheophorbide a, purpurin 18, or chlorin e6 was measured at an excitation wavelength of 405 nm and an emission wavelength of 667 nm. […] Thereafter, the medium was removed and cells were washed twice with 1 mL ice-cold PBS. […] The total radioactivity was measured by liqu Apparent EC50 and IC50 values were calculated from dose-response data using nonlinear regression analysis. All experiments were independently repeated at least three times. […] Non-polar residues are grey, polar residues are green, and acidic residues are red.

[2] = target: T1, ABCG2; assay: isothermal shift assay on membranes; Hoechst […] transport inhibition; 5D3 shift; disulfide crosslinking; assay type: cell-based; set-up: full-length ABCG2-WT in membrane vesicles / MEF cells
[3] = target: T1, ABCG2; assay type: cell-based; set-up: full-length ABCG2-WT in membrane vesicles / MEF cells
[4] = target: T1, ABCG2; assay: cell-based; set-up: full-length ABCG2-WT in MEF cells; species or system MEF (mouse embryonic fibroblasts) expressing human ABCG2-WT; Inhibition of ABCG2-mediated Hoechst 33342 transport; intracellular Hoechst 33342 fluorescence accumulation; conditions: ABCG2-WT, 0.5 uM Hoechst 33342; read-out: Hoechst 33342 transport inhibition IC50
Protocol: The intracellular accumulation of fluorescent Hoechst 33342, pheophorbide a, chlorin e6, and purpurin 18, ABCG2 substrates, was used to determine the function of ABCG2. For Hoechst 33342 accumulation assay, MEFs were seeded into a 96-well black clear bottom plate (Corning #3603) at 20,000 cells/well and 0.5 μM Hoechst 33342, and either [compound left out] or the test inhibitor (0.002–10 μM) were added to the culture medium followed by incubation for 2 h at 37 °C in the dark. Thereafter, the medium was removed, and cells were washed twice with 200 μL ice-cold PBS and the fluorescence of Hoechst 33342 was then quantitatively determined with a Synergy H4 microplate reader (BioTek, Winooski, VT, USA) at an excitation wavelength of 355 nm and an emission wavelength of 460 nm. The accumulation of Hoechst 33342 was normalized to protein concentration as determined using the BCA Protein Assay Kit (Pierce, Rockford, IL, USA). […] The intracellular accumulation of pheophorbide a, purpurin 18, or chlorin e6 was measured at an excitation wavelength of 405 nm and an emission wavelength of 667 nm. […] The total radioactivity was measured by liqu Fig. 4 N436A substitution affects inhibitor interaction. a–d Representative snapshots from MDS of tariquidar interacting with ABCG2. a ABCG2-WT with residues within 4 Å of tariquidar are in surface representation. […]

SMILES | IC50 [1] [nM] | isothermal shift assay on membranes; Hoechst 33342 transport inhibition; 5D3 shi [2] | isothermal shift assay on membranes; Hoechst 33342 transport inhibition; 5D3 shi [3] | IC50 [4] [nM]
CS(=O)(=O)CCNCc1ccc(-c2ccc3ncnc(Nc4ccc(OCc5cccc(F)c5)c(Cl)c4)c3c2)o1 [lapatinib] | 50 | ABCG2 inhibitors, Ko143, tariquidar, and lapatinib, strongly and dose-dependently thermally stabilized ABCG2-WT | – | –
COc1cc2c(cc1OC)CN(CCc1ccc(NC(=O)c3cc(OC)c(OC)cc3NC(=O)c3cnc4ccccc4c3)cc1)CC2 [tariquidar] | – | – | ABCG2 inhibitors, Ko143, tariquidar, and lapatinib, strongly and dose-dependently thermally stabilized ABCG2-WT | 80
